# Test results published in patent US20210139610A1, “COMPOSITIONS AND METHODS FOR MEDIATING EPS” (priority 2018, published 2021).
# “Also recorded” adds a separate entry of the source.
# B1: non-inflammatory HMGB1 variant: mHMGB1, a C45 S non-inflammatory variant (protein, UniProt P09429 1-215, looked up, variant C45S)
# High mobility group protein B1: MGKGDPKKPRGKMSSYAFFVQTCREEHKKKHPDASVNFSEFSKKSSERWKTMSAKEKGKFEDMAKADKARYEREMKTYIPPKGETKKKFKDPNAPKRPPSAFFLFCSEYRPKIKGEHPGLSIGDVAKKLGEMWNNTAADDKQPYEKKAAKLKEKYEKDIAAYRAKGKPDAAKKGVVKAEKSKKKKEEEEDEEDEEDEEEEEDEEDEDEEEDDDDE
# B2: NucB: nuclease that prevents biofilm formation (Table 1) (protein, UniProt P42983 29-136, looked up)
# Sporulation-specific …: SYDKVLYFPLSRYPETGSHIRDAIAEGHPDICTIDRDGADKRREESLKGIPTKPGYDRDEWPMAVCEEGGAGADVRYVTPSDNRGAGSWVGNQMSSYPDGTRVLFIVQ
# Columns and labels:
# [1] = system: Z-DNA and B-DNA in the NTHI biofilm extracellular matrix; test: Immunofluorescence CLSM for Z-DNA / B-DNA in NTHI biofilms; type: cell-based, Non-typeable Haemophilus influenzae; details: 24 h biofilm + 16 h with agent (1 mM CeCl3; 1 μM chloroquine)
# Method: FIG. 31: DNase degrades B-DNA, but not Z-DNA, within the biofilm extracellular matrix. DNase (Pulmozyme; 5 units) was added at 24 h after biofilm seeding to in vitro pre-formed NTHI biofilms.
# FIG. 37: HMGB1 destabilizes Z-DNA structures in the biofilm extracellular matrix. Non-typeable Haemophilus influenzae biofilms were grown in supplemented BHI media in 8 well chambered coverglass slides at 37° C. and 5% CO2. After 24 h, biofilms were treated as indicated above. After 40 h, biofilms were washed, probed with primary antibodies directed against Z-DNA (light gray dots), a fluorescent secondary antibody, stained with DAPI (gray regions), and visualized via fluorescence microscopy.
# FIGS. 50A-50B: Equilibrium shift of B-DNA to Z-DNA conversion alters biofilm formation. NTHI biofilms formed for 24 h were incubated with cerium chloride (CeCl3) or chloroquine for an additional 16 h and were probed with naive or anti-Z-DNA (white) by immunofluorescence CLSM.
# FIGS. 51A-51B: Equilibrium shift of B-DNA to Z-DNA conversion alters biofilm formation. NTHI biofilms formed for 24 h were incubated with cerium chloride (CeCl3) (FIG. 51A) or chloroquine (FIG. 51B) for an additional 16 h. Z-DNA was measured by IF and CLSM using anti-Z-DNA and cells were stained with the membrane stain FM4-64. Bars represent the SEM. Statistical significance compared to control was assessed by paired t-tests, *P<0.05, **P<0.01.
# genomic DNA / poly(dGdC) = test: A260/295 absorbance ratio assay of B-DNA to Z-DNA conversion; type: biochemical
# Method: In one aspect, the agents are administered in the absence of a DNAse. Left: Genomic DNA (2 μg/mL) was incubated with spermidine (spd:300 μM), HU (500 nM), a combination of both spd and HU for 2 h at 37° C. Incubation of gDNA with 3.6M NaCl was used as a positive Z-DNA control. Middle: gDNA (2 μg/mL) was incubated with increased concentrations of Cerium chloride (CeCl3) which is known to induce Z-DNA. Right: poly(dGdC) (1 μg) was incubated with either NaCl (3.6 M), chloroquine (100 μM), or a combination of both NaCl and chloroquine. […] The absorbance values at 260 nm and 295 nm were measured and the A260/295 ratio was calculated. A ratio >8.6 is indicative of B-DNA, while a value near 3.2 is indicative of Z-DNA.
# preformed NTHI biofilms [2] = test: Disruption of pre-formed NTHI biofilms (treatment after initial growth; LIVE/DEAD, CLSM, COMSTAT); type: cell-based, Non-typeable Haemophilus influenzae; details: 24 h biofilm + 16 h with CeCl3 or chloroquine
# [3] = system: Non-typeable Haemophilus influenzae biofilms; test: NTHI in vitro biofilm formation, additive present from seeding (LIVE/DEAD, CLSM, COMSTAT); type: cell-based; details: 1 mM exogenous spermidine plus DCHA 50 μM
# Method: FIG. 14: Non-typeable Haemophilus influenzae biofilms were grown for 40 h in supplemented BHI medium containing additives as indicated below each bar in 8 well chambered coverglass slides at 37° C. and 5% CO2. Biofilms were washed, stained with LIVE/DEAD®, fixed, and imaged by CLSM. Biofilm parameters were quantified using COMSTAT software.
# Dicyclohexylamine inhibits spermidine synthase via a competitive inhibition mechanism, i.e. through binding to the same site on the protein as the putrescine substrate. Applicants therefore hypothesized that dicyclohexylamine would inhibit NTHi biofilm development. […]
# preformed NTHI biofilms [4] = test: Disruption of pre-formed NTHI biofilms (treatment after initial growth; LIVE/DEAD, CLSM, COMSTAT); type: cell-based, Non-typeable Haemophilus influenzae; details: 1% P11
# Method: (FIG. 18A) Biofilm growth was initiated then maintained for 24 hrs then treated for 16 hrs with 0 (SBHI Control), 0.1%, 1%, and 5% (w/v) of Phoshocellulose (P11). (FIG. 18B) Biofilm growth was initiated then maintained for 40 hrs in the presence of 0 (sBHI Control), 0.1%, 1%, and 5% (w/v) of (P11). Biofilms were washed with saline and stained with LIVE/DEAD® stain. Images were analyzed by COMSTAT to calculate average thickness and biomass. All images were captured with a 63× objective.
# 21:65-7. Pulmozyme® was added either at seeding (biofilm prevention) or to pre-formed biofilms (biofilm disruption) (FIG. 6). The resultant biofilms were stained with LIVE/DEAD® and evaluated using CLSM and COMSTAT analysis.
# To determine anti-biofilm activity of cation exchange resins on preformed biofilms (i.e. ability to disrupt an extant biofilm), NTHI growth was initiated and maintained for 24 hrs, then treated for 16 hrs with 0 (sBHI Control), 0.1, 1, or 5% (w/v) of P11 phosphocellulose (FIG. 18A). To determine the anti-biofilm activity of cation exchange resins to prevent biofilm formation, NTHI growth was initiated and maintained in the presence of 0 (sBHI Control), 0.1, 1, and 5% w/v of P11 phosphocellulose (FIG. 18B) or 5% (w/v) heparin sepharose (FIG. 19). Biofilms were washed with saline and stained with LIVE/DEAD®, visualized with confocal scanning microscopy (CSLM) and analyzed by COMSTAT to determine average thickness and biomass.
# NTHI biofilms = test: Transwell assay: NTHI biofilm in basolateral chamber, P11 resin in apical chamber; type: cell-based, Non-typeable Haemophilus influenzae
# Method: (FIG. 42A) NTHI biofilm growth was initiated at 37° C., 5% CO2 in the basolateral chamber of a transwell plate system whereas P11 resin was added to the apical chamber, and incubated for 16 h. (FIG. 42B) Biofilms were stained, fixed, visualized via CLSM, and analyzed by COMSTAT. […] (FIG. 42C) Spermidine (Spd, 300 μM) and HU (500 nM) were added at seeding.
# To determine the effect of P11 sequestration of these molecules on bacterial biofilm formation, Applicants utilized a transwell system. NTHI growth was initiated in the basolateral chamber while P11 (1% w/v) was added to the apical chamber at seeding. At 16 h, the biofilms were washed and stained with LIVE/DEAD®, imaged using CLSM, and analyzed with COMSTAT. […] To determine whether P11 cation depletion included polyamines and/or DNABII proteins, NTHI growth was initiated in the basolateral chamber with the exogenous addition of 1 mM spermidine and 1 μM HU, while P11 was added at 1% w/v to the apical chamber.
# To determine whether the decrease in biofilm formation was dependent on direct cellular contact, NTHI growth was initiated in the basal chamber of a transwell plate system that contained a 0.4 μm pore size within the membrane that separates the apical and basolateral chambers. This allows for the diffusion of small molecules e.g. proteins (DNABII), polyamines and divalent metal cations between the two chambers, but not bacterial cells. […] Biofilms were washed with saline and stained with LIVE/DEAD®, visualized with CSLM and analyzed by COMSTAT to determine average thickness and biomass.
# To determine whether polyamines (spermidine) are depleted by P11 phosphocellulose without direct contact in the transwell system, NTHi growth was initiated in the basolateral chamber containing 0, 100, 500, or 1000 μM Spermidine, while 0 (sBHI control) or 1.5% (w/v) P11 phosphocellulose was added to the apical chamber and maintained for 16 hrs. Biofilms were washed with saline and stained with LIVE/DEAD®, visualized with CSLM and analyzed by COMSTAT to determine average thickness and biomass. […]
# NTHI genomic DNA (gDNA) = test: Protection of genomic DNA from DNase digestion (agarose gel); type: biochemical, Non-typeable Haemophilus influenzae; details: DNase 0.5 units
# Method: (FIG. 7C) Increasing levels of spermidine (Spd) and HU, separately or together, were incubated with genomic DNA (2 μg/ml) for 1.5 h at 37° C., followed by treatment with Pulmozyme® for 20 min. DNA degradation was assayed using agarose gel electrophoresis. […] (FIG. 7D) Spd (300 μM) and HU (1 μM) were incubated with genomic DNA (2 μg/ml) for 40 h, followed by Pulmozyme® treatment for 20 min.
# To test synergism in vitro, Applicants incubated NTHI genomic DNA (gDNA) with spermidine (10, 20, 50, or 100 μM) in the presence or absence of HU (50 or 100 nM) and DNase (0.5 units). Degradation was assessed by agarose gel electrophoresis and UV illumination.
# [5] = system: NTHI biofilms in the middle ear; test: Chinchilla model of otitis media due to NTHI, middle ear biofilm scoring; type: in vivo; details: 5 μg to middle ears at 4 and 5 days post infection, scored 24 h later
# Method: FIGS. 39A-39B: HMGB1 promotes biofilm resolution in an experimental model (chinchilla host) of OM. Diluent or 5 μg rHMGB1 or mHMGB1 were delivered directly to middle ears of chinchillas at 4 and 5 days post infection with NTHI. Animals were sacrificed 24 h later, and their middle ears were imaged (FIG. 39A) and blindly scored (FIG. 39B) based on the criteria described in the bottom of (FIG. 39A). Bars represent SEM. ***P<0.001.
# genomic DNA = test: Spermidine sensitivity of nucleases on genomic DNA; type: biochemical; details: Spermidine titrated from 10 μM-10 mM
molecule,measurement,setting,value
CCN(CC)CCCC(C)Nc1ccnc2cc(Cl)ccc12 (centres unmarked) [chloroquine],Z-DNA abundance in NTHI biofilm,[1],decreased Z-DNA abundance; also recorded: reduced Z-DNA
same,B-DNA to Z-DNA transition of poly(dGdC),genomic DNA / poly(dGdC); chloroquine 100 μM with NaCl 3.6 M,prevents the transition of B-DNA to Z-DNA
same,NTHI biofilm formation / development,preformed NTHI biofilms [2],reduced Z-DNA and biofilm development
NCCCCNCCCN [spermidine],rescue of biofilm formation in dicyclohexylamine-treated NTHI biofilms,[3],"defects in biofilm biogenesis could be compensated for; also recorded: restored normal biofilm thickness, biomass, and roughness; also recorded: able to rescue biofilm growth"
same,rescue of biofilm formation in dicyclohexylamine-treated NTHI biofilms,[3]; listed as Spd,restored biofilm formation
same,compensation of phosphocellulose effect on NTHI biofilm,preformed NTHI biofilms [4]; spermidine 0-5 mM for 16 hrs,can partially compensate for the negative effect of phosphocellulose
same,compensation of phosphocellulose effect on NTHI biofilm,"preformed NTHI biofilms [4]; spermidine 0-5 mM for 16 hrs, listed as Spermidine",rescues the negative effect of phosphocellulose on NTHI biofilm stability
same,restoration of P11-depleted biofilm by HU or spermidine individually,"NTHI biofilms; 1% P11, 1 mM spermidine or 1 μM HU, data not shown",insufficient
same,restoration of cation-depleted biofilms by spermidine alone,"NTHI biofilms; 1.5% P11, 100, 500 or 1000 μM spermidine, 16 hrs",alone can restore cation-depleted biofilms in a dose-dependent manner; also recorded: reduces the cation depletion effects of P11 phosphocellulose
same,concentration protecting gDNA from DNase individually,NTHI genomic DNA (gDNA),> 100 µM
same,concentration inhibiting gDNA digestion synergistically when admixed,NTHI genomic DNA (gDNA); admixed with HU,< 50 µM
"[Cl][Ce]([Cl])[Cl] [CeCl3, cerium chloride]",Z-DNA abundance in NTHI biofilm,[1],increased Z-DNA abundance
same,induction of Z-DNA in genomic DNA,"genomic DNA / poly(dGdC); gDNA 2 μg/mL, spd 300 μM + HU 500 nM, 2 h at 37° C., or increased concentrations of CeCl3",synergized to induce Z-DNA
same,NTHI biofilm formation / development,preformed NTHI biofilms [2],increased Z-DNA and biofilm formation
[Cl-].[Cl-].[Mg+2] [MgCl2],compensation of phosphocellulose effect on NTHI biofilm,preformed NTHI biofilms [4]; MgCl2 0-10 mM for 16 hrs,can partially compensate for the disruptive effect of phosphocellulose; also recorded: rescues the negative effect of phosphocellulose on NTHI biofilm stability
B1,resolution of middle ear NTHI biofilms,[5],efficient resolution of adherent biofilms
B2,Spd inhibition: spermidine concentration where nuclease was reduced to <10% activity on genomic DNA,genomic DNA,>10 mM
